Values of other authors as cited in patent US12533388B2, “Compositions and methods for prevention and treatment of immune deficiency and inflammation” (The United States GOVERNMENT As Represented By The …, priority 2020, dated 2026).

How the values were obtained:
[1] = tested on: rat insulinoma cells (RINm5F); conditions: in vitro
[2] = tested on: STZ-induced diabetic mice; conditions: as compared to the STZ-induced diabetic control group without CHP treatment
Saccharomyces cerevisae = conditions: by inhibiting chitinase

In the case of `O=C1N[C@@H](Cc2cnc[nH]2)C(=O)N2CCC[C@@H]12` [CHP, Cyclo (His-Pro)], the “STZ-induced cytotoxicity and apoptosis” value [1] is given as “prevented”, the “Oral glucose tolerance test (OGTT) values” [2] is given as “significantly decreased” and the “plasma glucose levels dropped” value [2] is given as 60%. The “growth of Saccharomyces cerevisae” value (Saccharomyces cerevisae) was “inhibit”.
